Data: patent publication US20180217128A1, “METHOD FOR MEASURING IN VIVO INHIBITION OF INTRACELLULAR RNASE” (NATIONAL INSTITUTE OF ADVANCED INDUSTRIAL SCIENCE AND …, priority 2015, published 2018)

Key:
[1] = target: T1, Ribonuclease (DNase free) Solution (ribonuclease; RNase) (Bos taurus, UniProt P61823); test: Degradation of the fluorescently labeled double-stranded RNA (FRET probe) by ribonuclease, cell-free; assay type: biochemical; set-up: purchased Nippon Gene; settings: 200 nM double-stranded RNA in Opti-MEM, 0.4 mg/ml RNase, room temperature 1 hour, vs no RNase, n=3
T1 sequence (P61823 27-150): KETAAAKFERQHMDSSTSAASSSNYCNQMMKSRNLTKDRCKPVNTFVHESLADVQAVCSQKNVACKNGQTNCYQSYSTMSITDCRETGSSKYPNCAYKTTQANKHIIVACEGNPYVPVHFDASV
Source text: First, FRET-Alexa-RNA: 5′-(Alexa Flour 488)-[…]-3′ (SEQ ID NO: 1) as a reporter strand, and FRET-BHQ1-RNA: (5′-[…]-(BHQ1)-3′ (SEQ ID NO:2) as a quencher strand were provided. The base at the 5′ end of the reporter strand is labeled with Alexa Flour 488 through a C6 linker, and the base at the 3′ end of the quencher strand is labeled with BHQ1 (Black Hole Quencher 1) without use of a linker (FIG. 2).
The reporter strand and the quencher strand were mixed at a ratio of 1:2 (molar ratio) in a solution of 50 mM HEPES, 500 mM KCl, and 25 mM MgCl2, and the resulting solution was incubated at 99° C. for 5 minutes, at 65° C. for 30 minutes, and then at 25° C. for 30 minutes to prepare a double-stranded RNA.
The experiment was carried out for n=3.

[2] = tested on: intracellular ribonuclease in HEK 293 cells; test: Evaluation of harmfulness to cells using fluorescently labeled double-stranded RNA (intracellular RNA degradation, FRET fluorescence); settings: Mercury II Chrolide 100 ng/ml
Source text: That is, the present inventors designed and prepared a double-stranded RNA comprising an RNA strand labeled with a fluorescent dye A that emits fluorescence, and an RNA strand labeled with a fluorescent dye B that quenches emission from a fluorescent dye in the vicinity thereof. When the double-stranded RNA is in a double-stranded state, the fluorescence is in a quenched state due to occurrence of fluorescence resonance energy transfer (FRET) (Non-patent Document 4) between the two kinds of fluorescent dyes.
[…] After mixing, each reaction liquid was incubated at room temperature for 20 minutes, and then added to HEK 293 cells (2×10^5 cells/ml in 96 well plate), which are human cells. From Hour 0 to Hour 8, fluorescence was measured at 519 nm with excitation at 488 nm using a Microplate Reader SH-9000 (Corona Electric) at one-hour intervals. The experiment was carried out for n=3.
The result obtained by dividing the fluorescence values at Hours 1 to 8 by the fluorescence value at Hour 0 is shown in FIG. 5.
As reaction liquids, systems each containing 50 μL of Opti-MEM (Life Technologies), 1 μL of Lipofectamine 2000 (Life Technologies), 200 nM double-stranded RNA (the same RNA as in Example 1), and 0 ng/ml, 1 ng/ml, 100 ng/ml, or 100 μg/ml Cisplatin (Wako) were provided. […]

[3] = target: T1, Ribonuclease (DNase free) Solution (ribonuclease; RNase); settings: 100 μM hydrogen peroxide
Experimental: In this experiment, how hydrogen peroxide influences the fluorescently labeled double-stranded RNA and a Ribonuclease (DNase free) Solution (ribonuclease; RNase) (Nippon Gene) was investigated.
A reaction liquid containing 200 nM double-stranded RNA in Opti-MEM (Life Technologies) (50 μL) was provided, and fluorescence was measured at 519 nm with excitation at 488 nm using a Microplate Reader SH-9000 (Corona Electric) (the result at Hour 0). Thereafter, systems in each of which hydrogen peroxide was added at 0 or 100 μM, and Ribonuclease (DNase free) Solution (ribonuclease; RNase) (Nippon Gene) was added at 0 or 0.4 mg/ml, were provided, and each system was incubated at room temperature for 1, 2, or 4 hours, followed by measurement of fluorescence at 519 nm with excitation at 488 nm using a Microplate Reader SH-9000 (the result at Hour 1, 2, or 4). The experiment was carried out for n=3.
The result obtained by dividing the fluorescence value at Hour 1, 2, or 4 by the fluorescence value at Hour 0 is shown in FIG. 4.

HEK 293 cells = settings: hydrogen peroxide 0.01, 1 or 100 μM, measured at Hour 2, 4, 6, 8, n=3
Experimental: The viable cell count was determined by the absorbance using a Cell Counting Kit-8 (Dojindo).
The cell systems at Hour 2, 4, 6, and 8 were subjected to measurement of the absorbance at 450 nm using a Cell Counting Kit-8 (Dojindo) and a Microplate Reader SH-9000 (Corona Electric) to determine the viable cell count. The experiment was carried out for n=3.

fluorescently labeled double-stranded RNA: Double-stranded RNA of FRET-Alexa-RNA reporter strand (SEQ ID NO: 1, Alexa Flour 488) and FRET-BHQ1-RNA quencher strand (SEQ ID NO: 2) (sense CAUAAUCCACCUCCCACUAUUCC; antisense GGAAUAGUGGGAGGUGGAUUAUG; RNA, backbone not given here; Alexa Fluor 488 on reporter, BHQ1 on quencher)
fluorescence intensity (fluorescence value at Hour 1 divided by value at Hour 0) on addition of RNase [1]: obviously increased

[Cl][Hg][Cl] [Mercury II Chrolide]
concentration dependence of the suppression of the fluorescence increase ([2]; 10 μg/ml or 1 mg/ml): dependent on the Mercury II Chrolide concentration | increase in the fluorescence value with time (Hours 1 to 8 divided by Hour 0) ([2]; 10 μg/ml or 1 mg/ml vs 0 ng/ml, Hour 0 to 8, n=3): suppressed

OO [hydrogen peroxide]
fluorescence value (Hour 1, 2 or 4 divided by Hour 0) of system with RNase, compared with RNase system ([3]; 200 nM double-stranded RNA, 0.4 mg/ml RNase, room temperature, n=3): almost the same | fluorescence value (Hour 1, 2 or 4 divided by Hour 0) of system without RNase, vs system with neither RNase nor hydrogen peroxide ([3]; 200 nM double-stranded RNA, no RNase, room temperature, n=3): almost the same | influence on fluorescence value of the RNA FRET Probe and on RNase activity (cell-free) ([3]; cell-free, 1-4 hours): influences neither the fluorescence value of the RNA FRET Probe nor the RNase activity | time at which a decrease in the absorbance (relative to 0 μM taken as 1) was first found (HEK 293 cells): 8 h
